Results from patent US20060079453A1, “Hla binding peptides and their uses” (priority 2002, published 2006).
pIC50: −log10 of the molar value. Like-named read-outs stand apart in the source and are kept apart here. No end group written: not given here.

Assays:
Experiment in all cases: biochemical
Type in all cases: binding
[1] = target: HLA-DR DRB1*0901 (DR9) (Homo sapiens, UniProt P01903+P01911, A100R/A103E/D57H/D86V/F55Y/F60I/F76Y/I96F/K127E/L162R/M171V/P40D/Q125H/Q99R/R33Q/R42F/S133A/S66N/T210M/V115G/W38K/Y107V/Y59G/Y89S)
[2] = target: HLA-DR DRB5*0101 (DR51) (Homo sapiens, UniProt P01903+Q30154); conditions: DRB5 *0101
[3] = target: HLA-DR DRB1*1302 (DR13) (Homo sapiens, UniProt P01903+P01911, A100E/A169T/K41T/L162R/M171V/P40S/Q125H/Q178H/Q39Y/Q99D/R42S/S66N/T262R/V115G/W38E/Y61H); conditions: DRBI *1302
[4] = target: HLA-DR DRB1*0405 (DR4) (Homo sapiens, UniProt P01903+P01911, A100R/A169T/D86S/F76Y/I96L/K127E/L162R/M171V/N62H/P40V/Q125Y/R42H/S133A/S149N/S66Y/V115G/V209L/W38E)
[5] = target: HLA-DR DRB1*1501 (DR15) (Homo sapiens, UniProt P01903+P01911); conditions: DRBI *1501
[6] = target: HLA-DR DRB1*1101 (DR11) (Homo sapiens, UniProt P01903+P01911, A100R/A169T/A87E/I96F/K41T/L162R/M171V/P40S/Q125H/Q178H/Q39Y/Q99D/R42S/S66Y/T262R/V115G/W38E); conditions: DRB1 *1101
[7] = target: HLA-DR DRB4*0101 (DR53) (Homo sapiens, UniProt P01903+P13762, G164S); conditions: DRB4 *0101
[8] = target: HLA-DR DRB1*0701 (DR7) (Homo sapiens, UniProt P01903+P01911, A100R/A102G/A103Q/D57E/D86V/E43K/F76Y/K127E/L162R/M171V/P40G/Q125H/Q99D/R33Q/R42Y/R54Q/S133A/S66F/T210M/V115G/Y107V/Y59L/Y89S)
[9] = target: HLA-DR DRB1*0101 (DR1) (Homo sapiens, UniProt P01903+P01911, A100R/D57E/F55L/F60I/F76Y/I96L/L162R/M171V/P40L/Q125E/R42F/V115G/Y59C)
[10] = target: HLA-DR DRB1*0401 (DR4) (Homo sapiens, UniProt P01903+P01911, A100K/A169T/F76Y/I96L/K127E/L162R/M171V/N62H/P40V/Q125Y/R42H/S133A/S149N/S66Y/V115G/V209L/W38E)
[11] = target: HLA-DR DRB1*0301 (DR3) (Homo sapiens, UniProt P01903+P01911, A100K/A102G/A103R/A169T/F55Y/I96L/K41T/L162R/M171V/P40S/Q125H/Q178H/Q39Y/R42S/S66N/T106N/T262R/W38E/Y61H)
HLA-DR DRB1*0301 (DR3), sequence (P01903 26-254 limits assumed, other chains not shown): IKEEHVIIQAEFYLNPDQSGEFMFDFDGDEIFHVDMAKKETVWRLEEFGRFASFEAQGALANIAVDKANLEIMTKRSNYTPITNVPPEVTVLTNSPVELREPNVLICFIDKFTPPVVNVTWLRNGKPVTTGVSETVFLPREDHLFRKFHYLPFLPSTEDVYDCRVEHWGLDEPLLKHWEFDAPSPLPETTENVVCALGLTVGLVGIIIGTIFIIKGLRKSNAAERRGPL

HLA-DR DRB1*1101 (DR11), sequence (P01903 26-254 limits assumed, other chains not shown): as above
HLA-DR DRB1*1302 (DR13), sequence (P01903 26-254 limits assumed, other chains not shown): as above

Compound | pIC50 ([1]; DRB1 *0901) | pIC50 [2] | pIC50 [3] | pIC50 ([4]; DRB1 *0405) | pIC50 [5] | pIC50 [6] | pIC50 [7] | pIC50 ([8]; DRB1 *0701) | pIC50 ([9]; DRB1 *0101) | pIC50 ([10]; DRB1 *0401) | pIC50 [11] | pIC50 ([1]; read-out: DRB1 *0901) | pIC50 ([4]; read-out: DRB1 *0405) | pIC50 ([11]; read-out: DRB1 *0301) | pIC50 ([8]; read-out: DRB1 *0701) | pIC50 ([9]; read-out: DRB1 *0101) | pIC50 ([10]; read-out: DRB1 *0401)
CSCC[C@H](NC(=O)[C@H](Cc1ccc(O)cc1)NC(=O)[C@H](CCC(=O)O)NC(=O)[C@@H](N)Cc1c[nH]cn1)C(=O)N[C@@H](CC(C)C)C(=O)N[C@@H](CC(=O)O)C(=O)N[C@@H](CC(C)C)C(=O)N[C@@H](CCC(N)=O)C(=O)N1CCC[C@H]1C(=O)N[C@@H](CCC(=O)O)C(=O)N[C@H](C(=O)N[C@H](C(=O)N[C@@H](CC(=O)O)C(=O)N[C@@H](CC(C)C)C(=O)N[C@@H](Cc1ccc(O)cc1)C(=O)O)[C@@H](C)O)[C@@H](C)O | 4.67 | < 4.64 | 4.89 | 5.64 | 4.51 | < 4.25 | 5.68 | < 4.73 |  |  |  |  |  |  |  |  | 
CC[C@H](C)[C@H](N)C(=O)N[C@@H](CCCNC(=N)N)C(=O)N[C@H](C(=O)N[C@@H](CC(C)C)C(=O)N[C@@H](CCC(=O)O)C(=O)N[C@@H](CC(=O)O)C(=O)N[C@@H](CC(C)C)C(=O)N[C@@H](CC(C)C)C(=O)N[C@@H](CCSC)C(=O)NCC(=O)N[C@H](C(=O)N[C@@H](CC(C)C)C(=O)NCC(=O)N[C@H](C(=O)N[C@H](C(=O)O)C(C)C)[C@@H](C)CC)[C@@H](C)O)[C@@H](C)O | 5.76 |  | 6.10 | 7.21 |  |  | 7.64 | 6.05 | 7.80 | 7.02 | 5.28 |  |  |  |  |  | 
CC[C@H](C)[C@H](NC(=O)[C@H](CCC(=O)O)NC(=O)[C@H](CC(C)C)NC(=O)[C@H](C)NC(=O)[C@H](CO)NC(=O)[C@H](CO)NC(=O)[C@H](CC(C)C)NC(=O)[C@H](CCC(=O)O)NC(=O)[C@H](Cc1c[nH]cn1)NC(=O)[C@H](CC(C)C)NC(=O)[C@H](CCCCN)NC(=O)[C@H](CCCNC(=N)N)NC(=O)[C@@H]1CCCN1)C(=O)N1CCC[C@H]1C(=O)N[C@@H](Cc1ccc(O)cc1)C(=O)O | 6.67 | < 4.97 | 7.29 | 7.10 | 5.95 |  |  |  |  | 5.28 | 4.79 |  |  |  |  |  | 
CKFVVQLDIQSTKED [CKFVVQLDIQSTKED] | 4.71 | < 4.50 | < 4.94 | 6.43 | 4.64 | < 4.50 | 6.52 | 5.34 |  |  |  |  |  |  |  |  | 
CSNLSTCVLQKLSQE |  |  |  |  |  |  |  |  |  |  |  | 5.14 | 5.27 | < 3.69 | 4.50 |  | 
DFAFADLTVVYREGN | 6.49 | 4.40 | 5.02 | 7.22 | 5.31 | < 4.74 | 4.75 | 5.76 | 5.48 | 6.85 |  |  |  |  |  |  | 
DFAFTDLTIVYRDDT | 5.84 | 6.17 | 5.30 | 7.40 | 5.44 |  | 4.67 |  |  | 7.10 | 7.64 |  |  |  |  |  | 
DLFVVYRDSIPHAAC | 5.62 | 4.97 | 4.95 | 5.44 | 5.55 |  | 5.57 | 5.28 |  | 7.09 |  |  |  |  |  |  | 
DLRVVQQLLMGALTV | 5.73 |  | 7.24 | 7.08 |  |  | 8.02 | 6.29 | 8.08 |  | 4.59 |  |  |  |  |  | 
IDGVNHQHLPARRAE | < 4.40 | 4.90 | < 4.94 | < 4.77 | < 4.43 | < 4.25 |  | < 4.73 |  | 4.47 |  |  |  |  |  |  | 
KDYILDLQPETTDLH | < 4.30 | < 4.26 | 4.63 | 5.56 | < 4.43 | < 4.76 | 6.31 | < 4.14 |  | 5.99 |  |  |  |  |  |  | 
LSFFLKEKGGLDGL |  |  |  |  |  |  |  |  |  |  |  | 5.46 | 6.01 | < 3.47 | 4.70 |  | 
LTIVYRDDTPHGVCT |  |  |  |  |  |  |  |  |  |  |  | < 4.60 | < 5.07 | 6.73 | < 4.14 | < 4.81 | 7.64
MLDLQPETTDLYCYE |  |  |  |  |  |  |  |  |  |  |  | < 4.49 | 5.37 | 6.14 | < 4.14 |  | 5.72
NYSVYGNTLEQTVKK | 4.32 |  | 5.06 | 6.09 | 4.81 | < 4.25 | < 4.60 | < 4.84 | 4.85 | 5.71 |  |  |  |  |  |  | 
QDVVLELTPQTEIDL | 5.77 | < 4.50 |  | 7.28 | < 4.48 | < 4.50 | 5.76 |  |  | 7.08 |  |  |  |  |  |  | 
QDYVLDLQPEATDLH | < 4.40 | < 4.64 | < 4.94 | 5.25 | < 4.20 | < 4.92 | 5.73 | < 4.73 | 4.87 | 6.60 |  |  |  |  |  |  | 
RETLQEIVLHLEPQN | 4.72 | < 4.26 | 4.94 | 6.08 | 4.79 | 5.10 | 7.02 | 4.59 | 5.80 | 5.53 |  |  |  |  |  |  | 
REVYKFLFTDLRIVY | 6.69 | 6.81 | 7.10 | 7.28 | 6.59 | 5.65 | 6.69 | 7.27 | 8.06 |  |  |  |  |  |  |  | 
RLFDNAMLRAHRL |  |  |  |  |  |  |  |  |  |  |  | < 4.23 | 5.37 | 7.57 | 5.48 | 8.64 | 5.20
RQDILDLWVYHTQGY |  | 4.79 | 5.17 | 5.94 | 6.14 | < 4.29 | 5.88 | 5.79 | 5.62 | 5.92 | 4.01 |  |  |  |  |  | 
RTAMFQDPQERPRKL | < 4.60 | 5.13 | 4.77 | 5.10 | 4.14 |  | 4.69 | 4.48 | 5.03 | 4.55 |  |  |  |  |  |  | 
TEVLDFAFTDLTIVY | 6.46 | < 4.21 | < 4.88 | 6.06 | 6.25 | < 4.74 |  |  | 5.68 |  |  |  |  |  |  |  | 
TIVYRDDTPHGVCTK | < 4.41 | < 4.21 | 5.20 | < 5.01 | 5.26 | < 4.74 | < 4.67 | < 4.45 | 5.42 |  |  |  |  |  |  |  | 
VFEFAFKDLFVVYRD | 4.77 | < 4.97 | 5.11 | 6.92 | 5.31 |  | 4.74 |  | 5.17 |  |  |  |  |  |  |  | 
VPTLQDVVLELTPQT | < 4.51 | < 4.50 | 4.82 | 5.27 |  | < 4.50 | 6.00 | < 4.45 | 4.79 | 6.67 |  |  |  |  |  |  | 
VVQLDIQSTKEDLRV |  |  |  |  |  |  |  |  |  |  |  | 4.86 | 7.34 |  | 5.42 |  | 4.95
VYDFVFADLRIVYRD |  |  |  |  |  |  |  |  |  |  |  | 6.70 | 6.14 | 8.66 |  | 7.01 | 6.32
YYDYSVYGATLESIT | 5.85 | < 4.29 |  | 6.64 | 5.96 | 5.04 | 4.49 |  | 6.00 |  |  |  |  |  |  |  | 
